# Results as given in ChEMBL document CHEMBL1201862, “PubChem BioAssay data set” (2004).
#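 Exposure lasted 48 hours, with cells grown in 96-well plates and compounds tested at five concentrations. GI50 marks 50% less growth.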 The source made the active and inactive calls. No stated cut-off is given here; in the data, active = GI50 up to about 1.1 µM and inactive = higher.
# What was measured:
# Test in all cases: NCI tumour cell line growth inhibition, 48 h
# [1] = test system: SK-OV-3
# [2] = test system: SK-MEL-2
# [3] = test system: SK-MEL-28
# [4] = test system: HCT-15
# [5] = test system: UO-31
# [6] = test system: SF-268
# [7] = test system: TK-10
# [8] = test system: SW-620
# [9] = test system: CCRF-CEM
# [10] = test system: NCI-H460
# [11] = test system: KM12
# [12] = test system: CAKI-1
# [13] = test system: SF-295
# [14] = test system: BT-549
# [15] = test system: LOX IMVI
# [16] = test system: HCT-116
# [17] = test system: RPMI-8226
# [18] = test system: UACC-257
# [19] = test system: ACHN
# [20] = test system: OVCAR-8
# [21] = test system: OVCAR-3
# [22] = test system: SNB-75
# [23] = test system: MCF7
# [24] = test system: Malme-3M
# [25] = test system: COLO 205
# [26] = test system: M14
# [27] = test system: MOLT-4
# [28] = test system: MDA-MB-435
# [29] = test system: HCC 2998
# [30] = test system: SN12C
# [31] = test system: MDA-MB-231
# [32] = test system: SR
# [33] = test system: OVCAR-4
# [34] = test system: IGROV-1
# [35] = test system: T47D
# [36] = test system: HOP-62
# [37] = test system: MDA-N
# [38] = test system: EKVX
# [39] = test system: A549
# [40] = test system: HL-60
# [41] = test system: UACC-62
# [42] = test system: SNB-19
# [43] = test system: SF-539
# [44] = test system: 786-0
# [45] = test system: NCI-H522
# [46] = test system: Hs-578T
# [47] = test system: U-251
# [48] = test system: OVCAR-5
# [49] = test system: RXF 393
# [50] = test system: SK-MEL-5
# [51] = test system: NCI-H23
# [52] = test system: NCI-H226
# [53] = test system: PC-3
# [54] = test system: NCI/ADR-RES
# [55] = test system: HT-29
# [56] = test system: K562
# [57] = test system: DU-145
# [58] = test system: HOP-92
structure (smiles),measurement,setting,value
O=S(=O)(/C=C/C=C/S(=O)(=O)c1ccccc1)c1ccccc1,GI50,[1],8 µM (inactive)
same,GI50,[2],2.72 µM (inactive)
same,GI50,[3],1.32 µM (inactive)
same,GI50,[4],1.2 µM
same,GI50,[5],1.46 µM (inactive)
same,GI50,[6],1.7 µM (inactive)
same,GI50,[7],1.57 µM (inactive)
same,GI50,[8],0.172 µM (active)
same,GI50,[9],0.151 µM (active)
same,GI50,[10],6.1 µM (inactive)
same,GI50,[11],2.29 µM (inactive)
same,GI50,[12],1.24 µM (inactive)
same,GI50,[13],10.4 µM (inactive)
same,GI50,[14],1.15 µM (inactive)
same,GI50,[15],0.713 µM (active)
same,GI50,[16],1.27 µM (inactive)
same,GI50,[17],0.419 µM (active)
same,GI50,[18],0.733 µM (active)
same,GI50,[19],0.769 µM (active)
same,GI50,[20],0.573 µM (active)
same,GI50,[21],0.721 µM (active)
same,GI50,[22],6.61 µM (inactive)
same,GI50,[23],0.845 µM (active)
same,GI50,[24],1.17 µM (inactive)
same,GI50,[25],1.44 µM (inactive)
same,GI50,[26],0.507 µM (active)
same,GI50,[27],0.315 µM (active)
same,GI50,[28],1.45 µM (inactive)
same,GI50,[29],11.5 µM (inactive)
same,GI50,[30],2 µM (inactive)
same,GI50,[31],1.56 µM (inactive)
same,GI50,[32],0.285 µM (active)
same,GI50,[33],1.65 µM (inactive)
same,GI50,[34],4.56 µM (inactive)
same,GI50,[35],1.04 µM (active)
same,GI50,[36],6.76 µM (inactive)
same,GI50,[37],1.24 µM (inactive)
same,GI50,[38],1.72 µM (inactive)
same,GI50,[39],9.27 µM (inactive)
same,GI50,[40],0.256 µM (active)
same,GI50,[41],0.721 µM (active)
same,GI50,[42],17.5 µM (inactive)
same,GI50,[43],3.88 µM (inactive)
same,GI50,[44],0.537 µM (active)
same,GI50,[45],0.174 µM (active)
same,GI50,[46],2.43 µM (inactive)
same,GI50,[47],4.12 µM (inactive)
same,GI50,[48],7.83 µM (inactive)
same,GI50,[49],0.36 µM (active)
same,GI50,[50],0.853 µM (active)
same,GI50,[51],1.35 µM (inactive)
same,GI50,[52],7.62 µM (inactive)
same,GI50,[53],4.68 µM (inactive)
same,GI50,[54],1.93 µM (inactive)
same,GI50,[55],1.18 µM (inactive)
same,GI50,[56],0.269 µM (active)
same,GI50,[57],14.6 µM (inactive)
same,GI50,[58],1.37 µM (inactive)
CN(C)C(=O)CO/N=C1/C(=C2/C(=O)Nc3ccccc32)Nc2ccccc21,GI50,[1],> 100 µM (inactive)
same,GI50,[2],> 100 µM (inactive)
same,GI50,[3],> 100 µM (inactive)
same,GI50,[4],> 100 µM
same,GI50,[5],> 100 µM (inactive)
same,GI50,[6],> 100 µM (inactive)
same,GI50,[7],40.9 µM (inactive)
same,GI50,[8],> 100 µM (inactive)
same,GI50,[9],> 100 µM (inactive)
same,GI50,[10],> 100 µM (inactive)
same,GI50,[11],0.032 µM (active)
same,GI50,[12],4.69 µM (inactive)
same,GI50,[13],39.9 µM (inactive)
same,GI50,[14],65.9 µM (inactive)
same,GI50,[15],> 100 µM (inactive)
same,GI50,[16],94.8 µM (inactive)
same,GI50,[17],> 100 µM (inactive)
same,GI50,[18],> 100 µM (inactive)
same,GI50,[19],> 100 µM (inactive)
same,GI50,[20],> 100 µM (inactive)
same,GI50,[21],> 100 µM (inactive)
same,GI50,[22],30.4 µM (inactive)
same,GI50,[23],> 100 µM (inactive)
same,GI50,[24],> 100 µM (inactive)
same,GI50,[25],31.6 µM (inactive)
same,GI50,[26],97.3 µM (inactive)
same,GI50,[27],> 100 µM (inactive)
same,GI50,[28],> 100 µM (inactive)
same,GI50,[29],> 100 µM (inactive)
same,GI50,[30],> 100 µM (inactive)
same,GI50,[31],> 100 µM (inactive)
same,GI50,[32],88.7 µM (inactive)
same,GI50,[33],> 100 µM (inactive)
same,GI50,[34],> 100 µM (inactive)
same,GI50,[35],> 100 µM (inactive)
same,GI50,[36],18.7 µM (inactive)
same,GI50,[37],> 100 µM (inactive)
same,GI50,[38],> 100 µM (inactive)
same,GI50,[39],> 100 µM (inactive)
same,GI50,[40],> 100 µM (inactive)
same,GI50,[41],> 100 µM (inactive)
same,GI50,[42],> 100 µM (inactive)
same,GI50,[43],39.3 µM (inactive)
same,GI50,[44],64.7 µM (inactive)
same,GI50,[45],> 100 µM (inactive)
same,GI50,[46],> 100 µM (inactive)
same,GI50,[47],26.6 µM (inactive)
same,GI50,[48],> 100 µM (inactive)
same,GI50,[49],17.7 µM (inactive)
same,GI50,[50],37.3 µM (inactive)
same,GI50,[51],> 100 µM (inactive)
same,GI50,[52],> 100 µM (inactive)
same,GI50,[53],> 100 µM (inactive)
same,GI50,[54],> 100 µM (inactive)
same,GI50,[55],> 100 µM (inactive)
same,GI50,[56],> 100 µM (inactive)
same,GI50,[57],> 100 µM (inactive)
same,GI50,[58],> 100 µM (inactive)
CC(=O)NCCc1c[nH]c2ccc(Cl)cc12,GI50,[1],> 100 µM (inactive)
same,GI50,[2],> 100 µM (inactive)
same,GI50,[3],> 100 µM (inactive)
same,GI50,[4],> 100 µM
same,GI50,[5],> 100 µM (inactive)
same,GI50,[6],> 100 µM (inactive)
same,GI50,[7],> 100 µM (inactive)
same,GI50,[8],> 100 µM (inactive)
same,GI50,[9],60.4 µM (inactive)
same,GI50,[10],> 100 µM (inactive)
same,GI50,[11],> 100 µM (inactive)
same,GI50,[12],> 100 µM (inactive)
same,GI50,[13],> 100 µM (inactive)
same,GI50,[14],25 µM (inactive)
same,GI50,[15],> 100 µM (inactive)
same,GI50,[16],> 100 µM (inactive)
same,GI50,[17],> 100 µM (inactive)
same,GI50,[18],> 100 µM (inactive)
same,GI50,[19],> 100 µM (inactive)
same,GI50,[20],> 100 µM (inactive)
same,GI50,[21],> 100 µM (inactive)
same,GI50,[22],33.4 µM (inactive)
same,GI50,[23],> 100 µM (inactive)
same,GI50,[24],> 100 µM (inactive)
same,GI50,[25],> 100 µM (inactive)
same,GI50,[26],90.2 µM (inactive)
same,GI50,[27],> 100 µM (inactive)
same,GI50,[28],> 100 µM (inactive)
same,GI50,[29],74.8 µM (inactive)
same,GI50,[30],> 100 µM (inactive)
same,GI50,[31],> 100 µM (inactive)
same,GI50,[32],> 100 µM (inactive)
same,GI50,[33],> 100 µM (inactive)
same,GI50,[34],> 100 µM (inactive)
same,GI50,[35],> 100 µM (inactive)
same,GI50,[36],> 100 µM (inactive)
same,GI50,[37],> 100 µM (inactive)
same,GI50,[38],> 100 µM (inactive)
same,GI50,[39],> 100 µM (inactive)
same,GI50,[40],> 100 µM (inactive)
same,GI50,[41],> 100 µM (inactive)
same,GI50,[42],> 100 µM (inactive)
same,GI50,[43],> 100 µM (inactive)
same,GI50,[44],> 100 µM (inactive)
same,GI50,[45],91 µM (inactive)
same,GI50,[46],> 100 µM (inactive)
same,GI50,[47],> 100 µM (inactive)
same,GI50,[48],> 100 µM (inactive)
same,GI50,[49],> 100 µM (inactive)
same,GI50,[50],> 100 µM (inactive)
same,GI50,[51],> 100 µM (inactive)
same,GI50,[52],> 100 µM (inactive)
same,GI50,[53],> 100 µM (inactive)
same,GI50,[54],> 100 µM (inactive)
same,GI50,[55],> 100 µM (inactive)
same,GI50,[56],> 100 µM (inactive)
same,GI50,[57],> 100 µM (inactive)
same,GI50,[58],79.8 µM (inactive)
